# Laboratory results published in patent US20050107386A1, “Methods of treating diseases and disorders by targeting multiple kinases” (priority 2003, published 2005).
# How the values were obtained:
# Assay type in all cases: biochemical
# Conditions in all cases: 3 μM; percent of control kinase activity
# PRAK(h) = molecular target: T1, PRAK(h) (Homo sapiens, UniProt Q8IW41); assay: PRAK(h) kinase assay
# T1 sequence (Q8IW41 1-473): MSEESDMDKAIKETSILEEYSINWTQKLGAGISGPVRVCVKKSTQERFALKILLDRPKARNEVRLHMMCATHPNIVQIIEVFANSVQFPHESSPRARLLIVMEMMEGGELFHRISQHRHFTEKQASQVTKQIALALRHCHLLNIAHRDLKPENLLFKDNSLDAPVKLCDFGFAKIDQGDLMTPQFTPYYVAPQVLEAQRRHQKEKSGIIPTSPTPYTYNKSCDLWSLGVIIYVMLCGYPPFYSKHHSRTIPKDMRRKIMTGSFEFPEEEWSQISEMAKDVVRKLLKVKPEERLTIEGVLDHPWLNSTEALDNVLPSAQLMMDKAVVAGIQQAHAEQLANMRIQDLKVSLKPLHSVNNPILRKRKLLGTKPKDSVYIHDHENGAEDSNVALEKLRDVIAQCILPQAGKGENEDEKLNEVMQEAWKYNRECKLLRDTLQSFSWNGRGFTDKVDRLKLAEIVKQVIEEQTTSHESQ
# Description: (§1) Six compounds (presumptive single agents) were tested against a panel of 50 kinases. The results are presented in Table 2; numbers for each kinase indicate the percent of control kinase activity in the presence of a 3μM concentration of the indicated agent.
# (§2) Agents that target two or more different kinases are useful in the methods of the invention as described elsewhere herein. Such compounds may be identified, and their effect on certain kinases may be identified, using the assays briefly described below in Examples 4-83. Each of these assays was carried out as described in Davies et al., Biochem. J., 351:95-105 (2000). All assays were carried out at 10 μM ATP unless otherwise noted.
# (§3) In a final reaction volume of 25 μl, PRAK (h) (5-10 mU) is incubated with 50 mM Na-β-glycerophosphate pH 7.5, 0.1 mM EGTA, 30 μM […] (SEQ ID NO11), 10 mM MgAcetate and [γ-^33P-ATP] (specific activity approx. 500 cpm/pmol, concentration as required). The reaction is initiated by the addition of Mg^2+ [γ-^33P-ATP]. After incubation for 40 minutes at room temperature, the reaction is stopped by the addition of 5 μl of a 3% phosphoric acid solution. 10 μl of the reaction is then spotted onto a P30 filtermat and washed three times for 5 minutes in 50 mM phosphoric acid and once in methanol prior to drying and scintillation counting.
# PRK2(h) = PRK2(h) (Homo sapiens, UniProt Q16513); assay: PRK2(h) kinase assay
# Chain of PRK2(h) (Q16513 whole entry): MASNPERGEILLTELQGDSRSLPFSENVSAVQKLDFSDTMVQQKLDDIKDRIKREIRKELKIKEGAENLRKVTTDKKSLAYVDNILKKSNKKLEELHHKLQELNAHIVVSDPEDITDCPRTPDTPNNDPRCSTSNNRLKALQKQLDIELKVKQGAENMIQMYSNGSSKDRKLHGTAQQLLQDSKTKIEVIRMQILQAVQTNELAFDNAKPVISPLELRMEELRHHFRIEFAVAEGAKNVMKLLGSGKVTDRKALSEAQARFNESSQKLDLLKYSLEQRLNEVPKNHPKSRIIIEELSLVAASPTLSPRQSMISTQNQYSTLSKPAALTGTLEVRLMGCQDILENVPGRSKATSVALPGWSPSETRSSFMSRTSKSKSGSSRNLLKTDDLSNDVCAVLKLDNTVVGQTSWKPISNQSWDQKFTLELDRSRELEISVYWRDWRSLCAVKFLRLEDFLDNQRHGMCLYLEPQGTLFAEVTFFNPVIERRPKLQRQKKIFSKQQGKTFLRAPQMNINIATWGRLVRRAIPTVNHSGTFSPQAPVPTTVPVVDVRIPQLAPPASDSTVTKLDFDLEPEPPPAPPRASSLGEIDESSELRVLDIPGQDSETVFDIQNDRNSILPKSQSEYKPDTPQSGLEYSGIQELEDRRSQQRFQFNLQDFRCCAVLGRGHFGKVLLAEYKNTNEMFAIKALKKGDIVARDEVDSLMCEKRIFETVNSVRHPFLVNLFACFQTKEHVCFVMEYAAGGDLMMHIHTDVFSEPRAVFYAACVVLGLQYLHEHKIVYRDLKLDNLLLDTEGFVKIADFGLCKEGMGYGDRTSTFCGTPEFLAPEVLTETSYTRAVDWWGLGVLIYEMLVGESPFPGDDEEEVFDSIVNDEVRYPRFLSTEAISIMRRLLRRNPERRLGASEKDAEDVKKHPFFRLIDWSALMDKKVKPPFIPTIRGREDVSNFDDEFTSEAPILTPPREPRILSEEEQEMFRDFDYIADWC
# Description: as §1, §2
# as §3, with “μl, PRK2” for “μl, PRAK”, “mM Tris” for “mM Na-β-glycerophosphate”, “EGTA, 0.1% β-mercaptoethanol,” for “EGTA,”, “ID NO:12),” for “ID NO11),”, “in 75” for “in 50”
# IGF-1R(h) = IGF-1R(h) (Homo sapiens, UniProt P08069); assay: IGF-1R(h) kinase assay
# Chain of IGF-1R(h) (P08069 31-1367): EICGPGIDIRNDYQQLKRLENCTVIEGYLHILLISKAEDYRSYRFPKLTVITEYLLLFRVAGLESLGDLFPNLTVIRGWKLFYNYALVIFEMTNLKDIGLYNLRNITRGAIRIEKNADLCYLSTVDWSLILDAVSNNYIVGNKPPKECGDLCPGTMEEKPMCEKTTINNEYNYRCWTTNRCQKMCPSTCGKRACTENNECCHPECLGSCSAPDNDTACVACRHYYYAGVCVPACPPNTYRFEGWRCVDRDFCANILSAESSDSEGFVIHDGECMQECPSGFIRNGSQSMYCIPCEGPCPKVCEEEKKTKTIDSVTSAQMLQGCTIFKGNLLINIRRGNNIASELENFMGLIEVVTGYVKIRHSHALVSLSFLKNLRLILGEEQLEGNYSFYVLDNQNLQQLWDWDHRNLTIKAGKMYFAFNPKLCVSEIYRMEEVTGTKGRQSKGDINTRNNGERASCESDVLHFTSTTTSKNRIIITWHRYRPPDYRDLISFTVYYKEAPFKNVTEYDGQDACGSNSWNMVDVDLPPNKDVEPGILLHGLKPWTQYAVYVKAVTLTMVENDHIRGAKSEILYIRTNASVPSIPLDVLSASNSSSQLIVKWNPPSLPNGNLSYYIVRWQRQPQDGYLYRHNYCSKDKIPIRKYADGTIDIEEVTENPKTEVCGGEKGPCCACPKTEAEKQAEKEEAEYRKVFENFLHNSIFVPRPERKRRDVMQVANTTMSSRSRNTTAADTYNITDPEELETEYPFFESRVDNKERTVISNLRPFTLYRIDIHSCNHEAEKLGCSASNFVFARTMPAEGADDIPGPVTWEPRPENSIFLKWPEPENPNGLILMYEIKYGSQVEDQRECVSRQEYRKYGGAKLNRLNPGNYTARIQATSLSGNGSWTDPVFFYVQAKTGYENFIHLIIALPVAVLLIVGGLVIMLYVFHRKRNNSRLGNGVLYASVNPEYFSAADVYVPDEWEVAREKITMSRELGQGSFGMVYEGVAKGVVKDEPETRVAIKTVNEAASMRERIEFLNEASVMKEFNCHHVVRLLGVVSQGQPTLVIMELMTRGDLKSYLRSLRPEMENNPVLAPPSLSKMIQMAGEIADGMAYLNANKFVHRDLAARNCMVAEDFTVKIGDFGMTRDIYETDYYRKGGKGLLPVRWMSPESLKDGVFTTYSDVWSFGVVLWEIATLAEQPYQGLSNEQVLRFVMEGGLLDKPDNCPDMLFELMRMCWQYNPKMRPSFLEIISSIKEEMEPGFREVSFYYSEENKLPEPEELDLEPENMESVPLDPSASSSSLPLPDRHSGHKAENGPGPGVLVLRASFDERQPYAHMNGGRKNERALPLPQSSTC
# Description: as §1, §2
# as §3, with “μl, IGF-IR” for “μl, PRAK”, “mM Tris” for “mM Na-β-glycerophosphate”, “EGTA, 0.1 mM NaVanadate, 0.1% β-mercaptoethanol, 250” for “EGTA, 30”, “ID NO:16), 10 mM MnCl2,” for “ID NO11),”, “in 75” for “in 50”
# MSK1(h) = MSK1(h) (Homo sapiens, UniProt O75582); assay: MSK1(h) kinase assay
# Chain of MSK1(h) (O75582 whole entry): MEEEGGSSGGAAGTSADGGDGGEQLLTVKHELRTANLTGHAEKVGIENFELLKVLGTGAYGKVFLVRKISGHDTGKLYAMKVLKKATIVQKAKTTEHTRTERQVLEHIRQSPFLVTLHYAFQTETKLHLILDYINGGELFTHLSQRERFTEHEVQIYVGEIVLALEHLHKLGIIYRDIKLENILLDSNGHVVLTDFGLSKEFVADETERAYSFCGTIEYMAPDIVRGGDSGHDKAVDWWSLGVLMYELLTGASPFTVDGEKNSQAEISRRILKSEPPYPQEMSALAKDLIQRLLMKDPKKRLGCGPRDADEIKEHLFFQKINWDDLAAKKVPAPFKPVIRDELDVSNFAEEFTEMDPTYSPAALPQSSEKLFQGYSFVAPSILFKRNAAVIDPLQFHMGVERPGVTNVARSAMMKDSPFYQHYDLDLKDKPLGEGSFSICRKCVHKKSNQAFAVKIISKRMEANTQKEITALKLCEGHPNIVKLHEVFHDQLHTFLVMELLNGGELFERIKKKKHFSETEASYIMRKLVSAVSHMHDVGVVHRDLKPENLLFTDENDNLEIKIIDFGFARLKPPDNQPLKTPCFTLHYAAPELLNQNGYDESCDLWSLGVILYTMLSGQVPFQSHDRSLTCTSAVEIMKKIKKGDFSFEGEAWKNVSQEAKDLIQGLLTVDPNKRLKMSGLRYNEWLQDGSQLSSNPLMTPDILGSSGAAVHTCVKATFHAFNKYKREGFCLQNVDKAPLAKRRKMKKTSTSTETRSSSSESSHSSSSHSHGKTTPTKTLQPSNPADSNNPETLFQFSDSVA
# Description: as §1, §2
# (§4) In a final reaction volume of 25 μl, MSK1 (h) (5-10 mU) is incubated with 8 mM MOPS pH 7.0, 0.2 mM EDTA, 30 μM […] (SEQ ID NO:2), 10 mM MgAcetate and [γ-^33P-ATP] (specific activity approx. 500 cpm/pmol, concentration as required). The reaction is initiated by the addition of Mg^2+ [γ-^33P-ATP]. After incubation for 40 minutes at room temperature, the reaction is stopped by the addition of 5 μl of a 3% phosphoric acid solution. 10 μl of the reaction is then spotted onto a P30 filtermat and washed three times for 5 minutes in 75 mM phosphoric acid and once in methanol prior to drying and scintillation counting.
# Rsk2(h) = Rsk2(h) (Homo sapiens, UniProt P51812); assay: Rsk2(h) kinase assay
# Chain of Rsk2(h) (P51812 whole entry): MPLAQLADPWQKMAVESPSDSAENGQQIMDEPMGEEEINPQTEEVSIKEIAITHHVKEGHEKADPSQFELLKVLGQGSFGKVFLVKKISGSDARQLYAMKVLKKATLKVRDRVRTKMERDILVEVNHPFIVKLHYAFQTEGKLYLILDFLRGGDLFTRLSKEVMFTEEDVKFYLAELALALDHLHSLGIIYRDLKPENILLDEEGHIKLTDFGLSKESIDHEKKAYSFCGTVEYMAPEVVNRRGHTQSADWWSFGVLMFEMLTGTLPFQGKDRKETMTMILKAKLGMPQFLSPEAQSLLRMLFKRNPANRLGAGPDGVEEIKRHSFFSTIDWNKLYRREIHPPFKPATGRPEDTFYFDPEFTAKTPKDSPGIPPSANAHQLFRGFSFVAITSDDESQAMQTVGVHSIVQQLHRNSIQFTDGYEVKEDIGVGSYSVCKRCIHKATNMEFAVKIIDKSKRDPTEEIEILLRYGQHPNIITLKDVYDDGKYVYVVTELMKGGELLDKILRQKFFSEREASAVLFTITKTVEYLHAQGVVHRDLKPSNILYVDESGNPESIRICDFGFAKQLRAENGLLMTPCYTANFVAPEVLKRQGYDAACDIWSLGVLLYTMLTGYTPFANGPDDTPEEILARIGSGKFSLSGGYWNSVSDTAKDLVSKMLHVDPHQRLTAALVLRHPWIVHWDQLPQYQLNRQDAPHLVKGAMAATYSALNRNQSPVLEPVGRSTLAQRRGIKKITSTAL
# Description: as §1, §2
# as §4, with “Rsk2(h)” for “MSK1 (h)”, “NO:11),” for “NO:2),”
# MAPK2(h) = MAPK2(h) (Homo sapiens, UniProt P28482); assay: MAPK2(h) kinase assay
# Chain of MAPK2(h) (P28482 whole entry): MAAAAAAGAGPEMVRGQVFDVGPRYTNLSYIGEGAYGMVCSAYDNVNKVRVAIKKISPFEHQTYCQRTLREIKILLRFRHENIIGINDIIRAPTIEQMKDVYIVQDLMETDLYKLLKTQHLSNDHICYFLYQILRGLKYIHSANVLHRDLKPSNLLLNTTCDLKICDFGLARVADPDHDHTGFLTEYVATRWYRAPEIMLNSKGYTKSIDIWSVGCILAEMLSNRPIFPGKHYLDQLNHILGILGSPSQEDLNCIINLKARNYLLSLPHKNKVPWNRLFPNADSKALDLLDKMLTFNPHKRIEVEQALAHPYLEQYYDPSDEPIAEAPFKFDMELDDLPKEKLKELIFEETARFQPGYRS
# Description: as §1, §2
# In a final reaction volume of 25 μl, MAPK2(h) (5-10 mU) is incubated with 25 mM Tris pH 7.5, 0.02 mM EGTA, 0.33 mg/ml myelin basic protein, 10 mM MgAcetate and [γ-^33P-ATP] (specific activity approx. 500 cpm/pmol, concentration as required). The reaction is initiated by the addition of Mg^2+ [γ-^33P-ATP]. After incubation for 40 minutes at room temperature, the reaction is stopped by the addition of 5 μl of a 3% phosphoric acid solution. 10 μl of the reaction is then spotted onto a P30 filtermat and washed three times for 5 minutes in 75 mM phosphoric acid and once in methanol prior to drying and scintillation counting.
Compound,"Inhibitory activity (% of control), PRAK(h) (PRAK(h))","Inhibitory activity (% of control), PRK2(h) (PRK2(h))","Inhibitory activity (% of control), IGF-1R(h) (IGF-1R(h))","Inhibitory activity (% of control), MSK1(h) (MSK1(h))","Inhibitory activity (% of control), Rsk2(h) (Rsk2(h))","Inhibitory activity (% of control), MAPK2(h) (MAPK2(h))"
"COc1ccc2cc(-c3n[nH]c4ccc(-c5n[nH]c(CN6CCOCC6)n5)cc34)ccc2c1 [CC001, 3-(6-Methoxynaphthalen-2-yl)-5-(5-Morpholin-4-Ylmethyl-1H-[1,2,4]Triazol-3-yl)-1H-Indazole]",12 % of control,9 % of control,92 % of control,62 % of control,6 % of control,0 % of control
"CC(C)Cc1nc(-c2ccc3[nH]nc(-c4ccc5cc(OCCN6CCCC6)ccc5c4)c3c2)n[nH]1 [CC002, 5-(5-Isobutyl-1H-[1,2,4]Triazol-3-yl)-3-[6-(2-Pyrrolidin-1-yl-Ethoxy)-Naphthalen-2-yl]-1H-Indazole]",6 % of control,4 % of control,55 % of control,45 % of control,5 % of control,2 % of control
"CC(C)(C)Cc1nc(-c2ccc3[nH]nc(-c4ccc5cc(OCc6ccccn6)ccc5c4)c3c2)n[nH]1 [CC004, 5-[5-(2,2-Dimethyl-propyl)-1H-[1,2,4]triazol-3-yl]-3-[6-(pyridine-2-ylmethoxy)-naphthalen-2-yl]-1H-indazole]",24 % of control,3 % of control,96 % of control,76 % of control,34 % of control,1 % of control
"CCN1CCC[C@H]1COc1ccc2cc(-c3n[nH]c4ccc(-c5nc(CC(C)(C)C)n[nH]5)cc34)ccc2c1 [CC005, 2-[((2s)-1-ethylpyrrolidin-2-yl)methoxy]-6-{5-[3-(2,2-Dimethylpropyl)(1H-1,2,4,-triazol-5-yl)](1H-indazol-3-yl)}naphthalene]",10 % of control,1 % of control,58 % of control,25 % of control,3 % of control,2 % of control

# Further lines, results first:
"Inhibitory activity (% of control), PRAK(h) (PRAK(h))","Inhibitory activity (% of control), PRK2(h) (PRK2(h))","Inhibitory activity (% of control), IGF-1R(h) (IGF-1R(h))","Inhibitory activity (% of control), MSK1(h) (MSK1(h))","Inhibitory activity (% of control), Rsk2(h) (Rsk2(h))","Inhibitory activity (% of control), MAPK2(h) (MAPK2(h))",Compound
12 % of control,24 % of control,65 % of control,72 % of control,31 % of control,3 % of control,"Fc1ccc(-c2n[nH]c3ccc(-c4n[nH]c(C5CCCC5)n4)cc23)cc1 [CC006, 5-(5-Cyclopentyl-1H-[1,2,4]triazol-3-yl)-3-(4-fluoro-phenyl)-1H-indazole, reference compound]"
0 % of control,68 % of control,88 % of control,89 % of control,45 % of control,3 % of control,"O=C(NC1CCCC1)c1cccc(-c2n[nH]c3ccc(-c4nc[nH]n4)cc23)c1 [CC007, 3-(5-(1H-1,2,4-triazol-3-yl)(1H-indazol-3-yl))phenyl-N-cyclopentylcarboxamide, reference compound]"
